The values below are quoted from earlier work in patent publication US20170042143A1, “ANIONIC POLYVINYL ALCOHOL COPOLYMER AS PROTECTIVE COLLOID FOR PESTICIDAL POLYUREA MICROCAPSULES” (BASF SE, priority 2014, published 2017).

For the series the following is noted: at 20° C.

Regarding `Cc1ccccc1CO[C@@H]1C[C@@]2(C(C)C)CC[C@]1(C)O2` (racemic) [Cinmethylin], the solubility in water entry is “about 0.06 g/l”.
